Source: patent EP0061283A1, “Antiviral agents, their preparation and use” (BEECHAM GROUP PLC, priority 1981, dated 1982)
“And” between values parts separate entries of the source, which are not always exact repeats. Identical values can stand only once.

Columns and labels:
[1] = Minimum concentration killing the cell monolayer (MTD) in the plaque reduction test; assay type: cell-based, African Green Monkey; conditions: monkey; minimum concentration which killed the cell monolayer; Vero cells, 37°C for 6 days
Method: (§1) Vero (African Green Monkey Kidney) cells were grown to confluence in 6 well multidishes, each well being 3.5 cm in diameter. The cells were incubated with Herpes simplex type 1 virus (HFEM strain) and overlaid with 0.5 ml of 0.9% agarose (w/v) in maintenance medium containing the test compound at a range of concentrations from 50 µg/ml in half-log dilution steps. The virus infected cultures were then incubated at 37°C for 6 days before fixing in 4% formaldehyde solution and staining with carbolfuchsin. The dishes were then examined to find what concentration of test compound causing a 50% reduction in the number of virus plaques formed (PDD50 value) and the minimum concentration of test compound which killed the cell monolayer, leaving a clear zone devoid of cells and virus plaques (MTD).

[2] = system: Herpes simplex type 1 virus (HFEM strain); experiment: Plaque reduction test in virus-infected Vero cell monolayers; assay type: cell-based; conditions: Human alphaherpesvirus 1, 144 h, concentration causing a 50% reduction in the number of virus plaques, Vero cells, 37°C for 6 days, read-out: PDD50 (the source's name)
Method: as §1

Row | Structure (SMILES) | MCC at 144 h [1] | IC50 [2]
1 | CCCC(=O)OC[C@H]1O[C@@H](n2cc(/C=C/Br)c(=O)[nH]c2=O)C[C@@H]1OC(=O)CCC [Example 1, E-5-(2-Bromovinyl)-3',5'-di-O-butyryl-2'-deoxyuridine] | > 100 µg/mL | 0.2 µg/mL and 420 nM
2 | CCCCC(=O)OC[C@H]1O[C@@H](n2cc(/C=C/Br)c(=O)[nH]c2=O)C[C@@H]1OC(=O)CCCC [Example 2, E-5-(2-Bromovinyl)-3',5'-di-O-valeryl-2'-deoxyuridine] | > 100 µg/mL | 0.2 µg/mL and 400 nM
3 | CC(=O)O[C@H]1C[C@H](n2cc(/C=C/Br)c(=O)[nH]c2=O)O[C@@H]1CO [Example 6, 3'-O-Acetyl-E-5-(2-bromovinyl)-2'-deoxyuridine] | > 100 µg/mL | 0.41 µg/mL and 1.1 µM
4 | CCCCC(=O)O[C@H]1C[C@H](n2cc(/C=C/Br)c(=O)[nH]c2=O)O[C@@H]1CO [Example 7, E-5-(2-Bromovinyl)-3'-O-valeryl-2'-deoxyuridine] | > 100 µg/mL | 0.18 µg/mL and 430 nM
5 | CC(=O)OC[C@H]1O[C@@H](n2cc(/C=C/Br)c(=O)[nH]c2=O)C[C@@H]1O [Example 8, 5'-O-Acetyl-E-5-(2-bromovinyl)-2'-deoxyuridine] | > 100 µg/mL | 0.32 µg/mL and 850 nM
6 | CCCCC(=O)OC[C@H]1O[C@@H](n2cc(/C=C/Br)c(=O)[nH]c2=O)C[C@@H]1O [Example 9, E-5-(2-Bromovinyl)-5'-O-valeryl-2'-deoxyuridine] | > 100 µg/mL | 0.16 µg/mL and 380 nM
7 | O=C(O)CCC(=O)OC[C@H]1O[C@@H](n2cc(/C=C/Br)c(=O)[nH]c2=O)C[C@@H]1OC(=O)CCC(=O)O [Example 10, E-5-(2-Bromovinyl)-3'.5'-di-O-(3-carboxypropionyl)-2'-deoxyuridine monohydrate] | > 100 µg/mL | 55 µg/mL and 103 µM
8 | O=C(O)CCC(=O)O[C@H]1C[C@H](n2cc(/C=C/Br)c(=O)[nH]c2=O)O[C@@H]1CO [Example 11b, E-5-(2-bromovinyl)-3'-O-(3-carboxypropionyl)-2'-deoxyuridine] | > 100 µg/mL | 0.18 µg/mL and 400 nM
9 | O=C(O)CCC(=O)OC[C@H]1O[C@@H](n2cc(/C=C/Br)c(=O)[nH]c2=O)C[C@@H]1O [Example 12, E-5-(2-bromovinyl)-5'-O-(3-carboxypropionyl)-2'-deoxyuridine] | > 100 µg/mL | 0.35 µg/mL and 800 nM
10 | CC(C)(C)C(=O)OC[C@H]1O[C@@H](n2cc(/C=C/Br)c(=O)[nH]c2=O)C[C@@H]1O [Example 13, E-5-(2-Bromoyinyl)-5'-O-pivaloyl-2'-deoxyuridine] | > 100 µg/mL | 0.52 µg/mL and 1.3 µM
11 | CC(C)(C)C(=O)OC[C@H]1O[C@@H](n2cc(/C=C/Br)c(=O)[nH]c2=O)C[C@@H]1OC(=O)C(C)(C)C [Example 14, E-5-(2-bromovinyl)-3',5'-di-0-pivaloyl-2'-deoxyuridine] | > 100 µg/mL | 8.5 µg/mL and 17 µM
